# Entries after “also recorded” stand apart in the source; their conditions may differ.
# Tested on: B16 melanoma
# Test: Imaging of tumor cell death in B16 melanoma in vivo, fluorescent microscopy
# Design: species or system c57/black mice
# Settings: BiCNU 35 mg/Kg; compound i.v. 1-3 mg/animal after 24 h; tumors removed 2 h later
# Protocol: Mice bearing B16-melanoma were treated with chemotherapy (BiCNU 35 mg/Kg, one dose), and then injected intravenously with NST920B. Animals were sacrificed two hours later, and the tumor was removed and subjected to fluorescent histopathological assessment, to identify binding of NST920B. Shown is fluorescent microscopic image of a section of the tumor.
# Melanoma tumors were induced in c57/black mice by subcutaneous injection of B16-F10 cell line (ATCC CRL-6475). The cell line was maintained in culture in Dulbecco's modified Eagle's medium (DMEM), supplemented with 4 mM of L-glutamine; 100 units/ml of penicillin; 100 μg/ml of streptomycin; 12.5 units/ml of nystatin and 10% of fetal calf serum (FCS). For tumor induction, 10^5 cells in a volume of 100 μl were injected […] to 8 week-old male mice. 15 days later, when tumor diameter reached 5-6 mm, the mice were treated with chemotherapy (BiCNU, 1,3-bis(2-chloroethyl)-1-nitrosourea, at a single dose of 35 mg/Kg). Twenty-four hours after chemotherapy, the mice were injected intravenously with the compounds of the invention NST920B, NST930 and Re-NST904 (1-3 mg/animal). Two hours later, tumors were removed, frozen in liquid nitrogen, and subjected to cryosection. Evaluation of fluorescent signal was performed using fluorescent microscope.
smiles,measurement,value
CN(C)c1cccc2c(S(=O)(=O)N(CCOCCN(CC(=O)O)S(=O)(=O)c3cccc4c(N(C)C)cccc34)CC(=O)O)cccc12 [NST920B],"uptake by viable, non-apoptotic tumor cells, B16 melanoma",did not manifest such uptake
same,"uptake into apoptotic tumor cells, B16 melanoma",Uptake of NST920B into apoptotic cells is demonstrated; also recorded: selective uptake

# Reference: patent publication US7378079B2, “Agents for imaging and diagnostic methods using them” (NST Neurosurvival Technologies Ltd., priority 2002, dated 2008)
